Data taken from patent US10736316B2, “Silica particles functionalized and loaded with fungicidal agents, their manufacture and their use as systems of targeted and controlled release of fungicides” (priority 2015, dated 2020).
Blank lines part the entries; values can stand above or below the compound they belong to.

What was measured:
[1] = Analysis of free imazalil in treatment water by HPLC; type: physicochemical; conditions: for [IMZ] free in water: treatment water at the moment of treatment; for Reduction of [IMZ] in water: versus reference treatment water
Method: (§1) 1 ml of test solution of loaded microparticles was filtered through a nylon 0.45 micron syringe filter and later analyzed by HPLC (Agilent 1100 Series).
Chromatographic Conditions:
60% Phosphate buffer pH=2.5, 2 mM
(§2) For the LD treatments, IMZ LD C18 and IMZ LD C12, suspensions of (IMZ)SG-C18-OH and (IMZ)SG-C12-OH at 6 g/l in tap water buffered with 10 mM of sodium etidronate at pH=7.5 was prepared from the concentrated suspensions described in examples 7 and 8. […] As a control, a treatment of bathing in tap water was carried out (CONTROL).
(§3) The reduction of free fungicide in water is calculated as: 100×(concentration of free fungicide in reference treatment water−concentration of free fungicide in LD treatment water)/concentration of free fungicide in reference treatment water. Likewise, the reduction of fungicide residues in fruits is calculated as: 100×(fungicide residues in fruit in reference treatment−fungicide residues in fruit in LD treatment)/fungicide residues in fruit in reference treatment.

[2] = system: Penicillium digitatum; assay: Rotting control (RRI) in oranges of Valencia variety inoculated with P. digitatum; type: in vivo; conditions: 7 days at 22° C. and 85% RH
Method: Without previous washing or treatment, fruits from the same batch, receive from field, were randomized in groups of 25. Each treatment was performed with 4 replicates of 25 fruits, which were artificially inoculated on one side by pricking with a punch (2 mm length, 1 mm diameter) previously impregnated in a solution of Penicillium digitatum or Penicillium italicum spores of 5*10^5 cfu/ml and allowed to stand for 17 hours before treatment.
as §2
The 25 fruits of each replicate were bathed using a mesh by immersion for 30 seconds in 10 l of treatment. […] After this time, the number of rotten fruits were counted for each replicate. The effectiveness of the treatments is expressed as % rotting and also as rotting reduction index (RRI, %), which is calculated as: 100×(No. of rotten control fruits−No. of rotten products in the treatment)/No. of rotten fruits in the control.
This experiment was carried out following the same procedure as for examples 9-14. The free pyrimethanil residues in water and virtual were analyzed according to examples 18 and 19. […]

[3] = Analysis of free thiabenzadol in treatment water by HPLC; type: physicochemical; conditions: example 22
Method: as §3
This experiment was carried out following the same procedure as for examples 9-14. The free thiabenzadol residues in water and virtual were analyzed according to examples 23 and 24. For the reference conventional treatment (TBZ REF) a solution of thiabenzadol at 1200 mg/l in tap water was prepared from a commercial solution at 40% (TEXTAR). For the LD treatment (TBZ LD C18) a suspension of (TBZ)SG-C18-OH of 16 g/l in tap water buffered with sodium etidronate 10 mM at pH=7.5 was prepared from the concentrated suspension described in example 21. A 16 g/l suspension correspond to a virtual thiabenzadol concentration contained within the microparticles of 1200 mg/l. As a control, a treatment of bathing in tap water was carried out (CONTROL).
as §1
(§4) Chromatographic Conditions: […]

[4] = Analysis of free pyrimethanil in treatment water by HPLC; type: physicochemical; conditions: example 17
Method: as §3
This experiment was carried out following the same procedure as for examples 9-14. The free pyrimethanil residues in water and virtual were analyzed according to examples 18 and 19. For the reference conventional treatment (PIRREF) a solution of pyrimethanil at 525 mg/l in tap water was prepared from a commercial solution at 40% (PENBOTEC). For the LD treatment (PIR LD C18) a suspension of (PIR)SG-C18-OH of 14 g/l in tap water buffered with sodium etidronate 10 mM at pH=7.5 was prepared from the concentrated suspension described in example 16. A 14 g/l suspension correspond to a virtual pyrimethanil concentration contained within the microparticles of 525 mg/l. As a control, a treatment of bathing in tap water was carried out (CONTROL).
as §1, §4

[5] = treatment water at the moment of treatment
[6] = versus reference treatment water

Compound: imazalil sulfate [IMZ REF]
[IMZ] free in water ([1]; example 9): 450 mg/L
Reduction of [IMZ] in water ([1]; example 9): 0.0%
[IMZ] free in water ([1]; example 10): 450 mg/L
Reduction of [IMZ] in water ([1]; example 10): 0.0%
[IMZ] free in water ([1]; example 11): 450 mg/L
Reduction of [IMZ] in water ([1]; example 11): 0.0%
[IMZ] free in water ([1]; example 12): 450 mg/L
Reduction of [IMZ] in water ([1]; example 12): 0.0%
[IMZ] free in water ([1]; example 13): 450 mg/L
Reduction of [IMZ] in water ([1]; example 13): 0.0%
[IMZ] free in water ([1]; example 14): 450 mg/L
Reduction of [IMZ] in water ([1]; example 14): 0.0%

[TBZ] free in water [3, 5]: 1200 mg/L
Reduction of [TBZ] in water [3, 6]: 0.0%
Compound: c1ccc2[nH]c(-c3cscn3)nc2c1 [TBZ REF, thiabenzadol]
rotting reduction index (RRI) ([2]; example 22, FIG. 18, 16 g/l (TBZ)SG-C18-OH in etidronic buffer pH=7.5 or thiabenzadol 1200 mg/l): 100%

Compound: Cc1cc(C)nc(Nc2ccccc2)n1 [PIR REF, pyrimethanil]
[PIR] free in water [4, 5]: 525 mg/L
Reduction of [PIR] in water [4, 6]: 0.0%
rotting reduction index (RRI) ([2]; example 17, FIG. 16, 14 g/l (PIR)SG-C18-OH in etidronic buffer pH=7.5 or pyrimethanil 525 mg/l): ~90%
